According to US20120107835A1, “METHOD FOR DETECTING BETA-AMYLOID USING AMINO ACID DIMERS” (E[…] TELECOMM[…] INSTITUTE, priority 2010, published 2012):
No end group written: not given here. *: point of attachment. Biotin = O=C1N[C@H]2[C@H](CS[C@H]2CCCCC(=O)*)N1

The substances below were run on causative β-amyloid (Aβ42) (assay: Sandwich ELISA detection of β-amyloid using biotinylated amino acid dimers instead of secondary antibody (absorbance at 450 nm)). Details: Aβ40 vs Aβ42, dimer 100 μM, FIG. 2.
Format: binding
Method: Detection of β-amyloid was carried out using the biotinylated amino acid dimers prepared in Example 1, as follows.
Normal β-amyloid (Aβ40) and causative β-amyloid (Aβ42) were obtained from rPeptide (at Bogart, Ga., USA), and monoclonal antibodies specific for the β-amyloids(primary antibodies) were obtained from Covance (France). Each of the primary antibodies was mixed with sodium carbonate (pH 9.2) and the solution was added to a 96-well microplate for coating the wells (high-affinity F series, available from
NUNC, and then the microplate was washed with PBS or distilled water.
Meanwhile, each β-amyloid was dissolved in a sodium carbonate buffer (pH 9.4, Pierce) to a concentration of 1.0 mg/mL. For dilution, 100 μL of the β-amyloid solution was mixed with 9,900 μL of PBS. Each 200 μL of the resulting β-amyloid solution was dispensed into the wells of the 96-well microplate, and incubated for 4-hr at a room temperature so that β-amyloid binds to the primary antibody. Then, the plate was washed five times with PBS buffer (Pierce, at Rockford, Ill., USA), and 100 μL of the biotinylated amino acid dimer solution (amino acid dimer, dissolved in PBS to a concentration of 100 μM) was added to allow reaction for 1 hr. Each well was washed five times with PBS buffer, and 200 μL of streptavidin-HRP solution (diluted by 1:10,000, Pierce, at Rockford, Ill., USA) was added to allow reaction over 1 hr. After the reaction was completed, the plate was washed three times with PBS buffer, 100 μL of TMB substrate solution (KPL, USA) was added to allow reaction for 10-minute under a dark condition. Then, 50 μL of 15% hydrochloric acid was added to stop the reaction, and the absorbance of the reaction mixture at 450 nm was measured using a microplate reader (Bio-RAD, iMark).

| Substance | difference of absorbance between Aβ40 and Aβ42 |
| --- | --- |
| Biotin-Ala-Arg [Dimer 1] | very significant |
| Biotin-Arg-Ile [Dimer 3] | very significant |
| Biotin-Arg-Leu [Dimer 5] | very significant |
| Biotin-Cys-Ser [Dimer 13] | very significant |
